According to US11458123B2 (Arvinas, Inc., priority 2016, dated 2022):

Tested on: tau protein
Assay: Tau protein in vitro degradation assay (Western blot, Tau-13 antibody)
Type: cell-based, human
Conditions: SK-N-SH cells; 72 hours of incubation; tested at 300 nM, 100 nM, 33 nM and 11 nM; Western blot, Tau-13 antibody
Summary of the method: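 SK-N-SH cells, seeded ≥18 h beforehand, were incubated 72 h with tau PROTACs at 1000, 300 and 100 nM or at 300, 100, 33 and 11 nM. Lysates in protease-inhibitor buffer were resolved by SDS-PAGE; tau quantified by Western blot with Tau-13 antibody recognising all human tau forms.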

| SMILES | Degradation activity* (highest amount of degradation observed at any dosage; tau protein remaining) |
| --- | --- |
| Cn1c2ccncc2c2ccc(-c3ccc(O[C@H]4C[C@H](Oc5ccc(CCCCCCOc6ccc7c(c6)C(=O)N(C6CCC(=O)NC6=O)C7=O)nn5)C4)nc3)cc21 (stereo partly shown) [Compound 149, 2-(2,6-dioxopiperidin-3-yl)-5-((6-(6-((1r,3r)-3-((5-(5-methyl-5H-pyrido[4,3-b]indol-7-yl)pyridin-2-yl)oxy)cyclobutoxy)pyridazin-3-yl)hexyl)oxy)isoindoline-1,3-dione] | B (≤80% and >50% tau protein remaining after 72 hours of incubation with the test compound) |
| Cn1c2ccncc2c2ccc(-c3ccc(O[C@H]4C[C@H](OCCCC(F)(F)CN5CC6(C5)CN(c5ccc7c(c5)C(=O)N(C5CCC(=O)NC5=O)C7=O)C6)C4)nc3)cc21 (stereo partly shown) [Compound 150, 5-(6-(2,2-difluoro-5-((1r,3r)-3-((5-(5-methyl-5H-pyrido[4,3-b]indol-7-yl)pyridin-2-yl)oxy)cyclobutoxy)pentyl)-2,6-diazaspiro[3.3]heptan-2-yl)-2-(2,6-dioxopiperidin-3-yl)isoindoline-1,3-dione] | B (≤80% and >50% tau protein remaining after 72 hours of incubation with the test compound) |
| Cn1c2ccncc2c2ccc(-c3ccc(O[C@H]4C[C@H](Oc5cnc(CCCCCCOc6ccc7c(c6)C(=O)N(C6CCC(=O)NC6=O)C7=O)nc5)C4)nc3)cc21 (stereo partly shown) [Compound 151, 2-(2,6-dioxopiperidin-3-yl)-5-((6-(5-((1r,3r)-3-((5-(5-methyl-5H-pyrido[4,3-b]indol-7-yl)pyridin-2-yl)oxy)cyclobutoxy)pyrimidin-2-yl)hexyl)oxy)isoindoline-1,3-dione] | B (≤80% and >50% tau protein remaining after 72 hours of incubation with the test compound) |
| Cn1c2ccncc2c2ccc(-c3ccc(O[C@H]4C[C@H](Oc5ccc(C#CCN6CC(Oc7ccc8c(c7)C(=O)N(C7CCC(=O)NC7=O)C8=O)C6)nc5)C4)nc3)cc21 (stereo partly shown) [Compound 152, 2-(2,6-dioxopiperidin-3-yl)-5-((1-(3-(5-((1r,3r)-3-((5-(5-methyl-5H-pyrido[4,3-b]indol-7-yl)pyridin-2-yl)oxy)cyclobutoxy)pyridin-2-yl)prop-2-yn-1-yl)azetidin-3-yl)oxy)isoindoline-1,3-dione] | A (≤50% tau protein remaining after 72 hours of incubation with the test compound) |
| Cn1c2ccncc2c2ccc(-c3ccc(O[C@H]4C[C@H](OCCCCCOC(CC5CN(c6ccc7c(c6)C(=O)N(C6CCC(=O)NC6=O)C7=O)C5)C(F)(F)F)C4)nc3)cc21 (stereo partly shown) [Compound 153, 2-(2,6-dioxopiperidin-3-yl)-5-(3-(3,3,3-trifluoro-2-((5-((1r,3r)-3-((5-(5-methyl-5H-pyrido[4,3-b]indol-7-yl)pyridin-2-yl)oxy)cyclobutoxy)pentyl)oxy)propyl)azetidin-1-yl)isoindoline-1,3-dione] | B (≤80% and >50% tau protein remaining after 72 hours of incubation with the test compound) |
| Cn1c2ccncc2c2ccc(-c3ccc(O[C@H]4C[C@H](OCCCCCCOC(C5CN(c6ccc7c(c6)C(=O)N(C6CCC(=O)NC6=O)C7=O)C5)C(F)(F)F)C4)nc3)cc21 (stereo partly shown) [Compound 154, 2-(2,6-dioxopiperidin-3-yl)-5-(3-(2,2,2-trifluoro-1-((6-((1r,3r)-3-((5-(5-methyl-5H-pyrido[4,3-b]indol-7-yl)pyridin-2-yl)oxy)cyclobutoxy)hexyl)oxy)ethyl)azetidin-1-yl)isoindoline-1,3-dione] | C (>80% tau protein remaining after 72 hours of incubation with the test compound) |
| Cn1c2ccncc2c2ccc(-c3ccc(O[C@H]4C[C@H](OCCOc5ccc(OC6CN(c7ccc8c(c7)C(=O)N(C7CCC(=O)NC7=O)C8=O)C6)nc5)C4)nc3)cc21 (stereo partly shown) [Compound 155, 2-(2,6-dioxopiperidin-3-yl)-5-(3-((5-(2-((1r,3r)-3-((5-(5-methyl-5H-pyrido[4,3-b]indol-7-yl)pyridin-2-yl)oxy)cyclobutoxy)ethoxy)pyridin-2-yl)oxy)azetidin-1-yl)isoindoline-1,3-dione] | C (>80% tau protein remaining after 72 hours of incubation with the test compound) |
| Cn1c2ccncc2c2ccc(-c3ccc(O[C@H]4C[C@H](Oc5ccc(CCCOC6CN(c7ccc8c(c7)C(=O)N(C7CCC(=O)NC7=O)C8=O)C6)nc5)C4)nc3)cc21 (stereo partly shown) [Compound 156, 2-(2,6-dioxopiperidin-3-yl)-5-(3-(3-(5-((1r,3r)-3-((5-(5-methyl-5H-pyrido[4,3-b]indol-7-yl)pyridin-2-yl)oxy)cyclobutoxy)pyridin-2-yl)propoxy)azetidin-1-yl)isoindoline-1,3-dione] | C (>80% tau protein remaining after 72 hours of incubation with the test compound) |
| Cn1c2ccncc2c2ccc(-c3ccc(O[C@H]4C[C@H](C(=O)N5CC6(CC(OCCCCOc7ccc8c(c7)C(=O)N(C7CCC(=O)NC7=O)C8=O)C6)C5)C4)nc3)cc21 (stereo partly shown) [Compound 157, 2-(2,6-dioxopiperidin-3-yl)-5-(4-((2-((1r,3r)-3-((5-(5-methyl-5H-pyrido[4,3-b]indol-7-yl)pyridin-2-yl)oxy)cyclobutane-1-carbonyl)-2-azaspiro[3.3]heptan-6-yl)oxy)butoxy)isoindoline-1,3-dione] | C (>80% tau protein remaining after 72 hours of incubation with the test compound) |
| Cn1c2ccncc2c2ccc(-c3ccc(O[C@H]4C[C@H](OC5CCN(c6cc(OCCOc7ccc8c(c7)C(=O)N(C7CCC(=O)NC7=O)C8=O)cnn6)CC5)C4)nc3)cc21 (stereo partly shown) [Compound 158, 2-(2,6-dioxopiperidin-3-yl)-5-(2-((6-(4-((1r,3r)-3-((5-(5-methyl-5H-pyrido[4,3-b]indol-7-yl)pyridin-2-yl)oxy)cyclobutoxy)piperidin-1-yl)pyridazin-4-yl)oxy)ethoxy)isoindoline-1,3-dione] | C (>80% tau protein remaining after 72 hours of incubation with the test compound) |
| Cn1c2ccncc2c2ccc(-c3ccc(O[C@H]4C[C@@H](Oc5ccc(C#CCOC6CN(c7ccc8c(c7)C(=O)N(C7CCC(=O)NC7=O)C8=O)C6)nc5)C4)nc3)cc21 (stereo partly shown) [Compound 159, 2-(2,6-dioxopiperidin-3-yl)-5-(3-((3-(5-((1 s,3 s)-3-((5-(5-methyl-5H-pyrido[4,3-b]indol-7-yl)pyridin-2-yl)oxy)cyclobutoxy)pyridin-2-yl)prop-2-yn-1-yl)oxy)azetidin-1-yl)isoindoline-1,3-dione] | C (>80% tau protein remaining after 72 hours of incubation with the test compound) |
| Cn1c2ccncc2c2ccc(-c3ccc(O[C@H]4C[C@@H](Oc5ccc(CCCOC6CN(c7ccc8c(c7)C(=O)N(C7CCC(=O)NC7=O)C8=O)C6)nc5)C4)nc3)cc21 (stereo partly shown) [Compound 160, 2-(2,6-dioxopiperidin-3-yl)-5-(3-(3-(5-((1 s,3s)-3-((5-(5-methyl-5H-pyrido[4,3-b]indol-7-yl)pyridin-2-yl)oxy)cyclobutoxy)pyridin-2-yl)propoxy)azetidin-1-yl)isoindoline-1,3-dione] | B (≤80% and >50% tau protein remaining after 72 hours of incubation with the test compound) |
| Cn1c2ccncc2c2ccc(-c3ccc(O[C@H]4C[C@H](OCCOCCOCCOC5CN(c6ccc7c(c6)C(=O)N(C6CCC(=O)NC6=O)C7=O)C5)C4)nc3)cc21 (stereo partly shown) [Compound 161, 2-(2,6-dioxopiperidin-3-yl)-5-(3-(2-(2-(2-((1r,3r)-3-((5-(5-methyl-5H-pyrido[4,3-b]indol-7-yl)pyridin-2-yl)oxy)cyclobutoxy)ethoxy)ethoxy)ethoxy)azetidin-1-yl)isoindoline-1,3-dione] | C (>80% tau protein remaining after 72 hours of incubation with the test compound) |
| Cn1c2ccncc2c2ccc(-c3ccc(O[C@H]4C[C@H](OCCCCOCCCCOC5CN(c6ccc7c(c6)C(=O)N(C6CCC(=O)NC6=O)C7=O)C5)C4)nc3)cc21 (stereo partly shown) [Compound 162, 2-(2,6-dioxopiperidin-3-yl)-5-(3-(4-(4-((1r,3r)-3-((5-(5-methyl-5H-pyrido[4,3-b]indol-7-yl)pyridin-2-yl)oxy)cyclobutoxy)butoxy)butoxy)azetidin-1-yl)isoindoline-1,3-dione] | A (≤50% tau protein remaining after 72 hours of incubation with the test compound) |
| Cn1c2ccncc2c2ccc(-c3ccc(O[C@H]4C[C@H](OCCOCCOC5CN(c6ccc7c(c6)C(=O)N(C6CCC(=O)NC6=O)C7=O)C5)C4)nc3)cc21 (stereo partly shown) [Compound 163, 2-(2,6-dioxopiperidin-3-yl)-5-(3-(2-(2-((1r,3r)-3-((5-(5-methyl-5H-pyrido[4,3-b]indol-7-yl)pyridin-2-yl)oxy)cyclobutoxy)ethoxy)ethoxy)azetidin-1-yl)isoindoline-1,3-dione] | C (>80% tau protein remaining after 72 hours of incubation with the test compound) |
| O=C1CCC(N2C(=O)c3ccc(OCCCCCC(=O)N4CCC(O[C@H]5C[C@H](Oc6ccc(-c7ccc8c(c7)[nH]c7ccncc78)cn6)C5)CC4)cc3C2=O)C(=O)N1 (stereo partly shown) [Compound 164, 5-(6-(4-((1r,3r)-3-(5-(5H-pyrido[4,3-b]indol-7-yl)pyridin-2-yloxy)cyclobutoxy)piperidin-1-yl)-6-oxohexyloxy)-2-(2,6-dioxopiperidin-3-yl)isoindoline-1,3-dione] | C (>80% tau protein remaining after 72 hours of incubation with the test compound) |
